Patent US12594276B2, “Inhibitors of human immunodeficiency virus replication” (ViiV Healthcare UK (No.5) Limited, priority 2024, dated 2026)
pEC50: −log10 of the molar value.

Assays:
[1] = Compound cytotoxicity, XTT-based colorimetric assay; type: cell-based; conditions: human; uninfected MT2 cells, day 4, XTT; read-out: CC50
Procedure, shortened: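 CC50 derived from XTT colorimetric signal measured on day 4 in MT2 cells that were not infected. All other steps followed the antiviral assay protocol.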

[2] = system: recombinant NL4-3 virus (nef section replaced with Renilla luciferase gene) in MT-2 cells; test: HIV cell culture assay (antiviral activity, luciferase readout); type: cell-based; conditions: Renilla, NL43, MT-2 cells infected for 4-5 days with recombinant NL4-3 Renilla luciferase virus
Procedure, shortened: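 293T transfection → virus harvest at 2-3 d → titer in MT-2 by luciferase. MT-2 + virus + serial cpd dilutions, 4-5 d. Live-cell luciferase read; EC50 by median effect fit.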

Row | Compound | CC50 at 4 days [1] | pEC50 [2]
1 | CC1(C)CN(CCn2nc(NS(C)(=O)=O)c3c(Cl)ccc(-n4c([C@H](Cc5cc(F)cc(F)c5)NC(=O)Cn5nc(C(F)F)c6c5C(F)(F)[C@@H]5C[C@H]65)nc5nc(C6CCC(F)(F)CC6)cc(CF)c5c4=O)c32)CC(C)(C)O1 (atropisomer, axis not shown; (P)) [Example 513, N-[(1S)-1-[(3P)-3-{4-chloro-3-methanesulfonamido-1-[2-(2,2,6,6-tetramethylmorpholin-4-yl)ethyl]-1H-indazol-7-yl}-7-(4,4-difluorocyclohexyl)-5-(fluoromethyl)-4-oxo-3H,4H-pyrido[2,3-d]pyrimidin-2-yl]-2-(3,5-difluorophenyl)ethyl]-2-[(2S,4R)-9-(difluoromethyl)-5,5-difluoro-7,8-diazatricyclo[4.3.0.0^2,^4]nona-1(6),8-dien-7-yl]acetamide] | > 20000 pM | 10.77
2 | CS(=O)(=O)Nc1nn(CCN2CCC(F)(F)CC2)c2c(-n3c([C@H](Cc4cc(F)cc(F)c4)NC(=O)Cn4nc(C(F)F)c5c4C(F)(F)[C@@H]4C[C@H]54)nc4nc(C5CCC(F)(F)CC5)cc(CF)c4c3=O)ccc(Cl)c12 (atropisomer, axis not shown; (P)) [Example 514, N-[(1S)-1-[(3P)-3-{4-chloro-1-[2-(4,4-difluoropiperidin-1-yl)ethyl]-3-methanesulfonamido-1H-indazol-7-yl}-7-(4,4-difluorocyclohexyl)-5-(fluoromethyl)-4-oxo-3H,4H-pyrido[2,3-d]pyrimidin-2-yl]-2-(3,5-difluorophenyl)ethyl]-2-[(2S,4R)-9-(difluoromethyl)-5,5-difluoro-7,8-diazatricyclo[4.3.0.0^2,^4]nona-1(6),8-dien-7-yl]acetamide] | > 20000 pM | 10.85
3 | COCCCn1nc(NS(C)(=O)=O)c2c(Cl)ccc(-n3c([C@H](Cc4cc(F)cc(F)c4)NC(=O)Cn4nc(C(F)F)c5c4C(F)(F)[C@@H]4C[C@H]54)nc4nc(C5CCC(F)(F)CC5)cc(NCCN5CCC6(CC5)CC6)c4c3=O)c21 (atropisomer, axis not shown; (P)) [Example 515, N-[(1S)-1-[(3P)-5-[(2-{6-azaspiro[2.5]octan-6-yl}ethyl)amino]-3-[4-chloro-3-methanesulfonamido-1-(3-methoxypropyl)-1H-indazol-7-yl]-7-(4,4-difluorocyclohexyl)-4-oxo-3H,4H-pyrido[2,3-d]pyrimidin-2-yl]-2-(3,5-difluorophenyl)ethyl]-2-[(2S,4R)-9-(difluoromethyl)-5,5-difluoro-7,8-diazatricyclo[4.3.0.0^2,^4]nona-1(6),8-dien-7-yl]acetamide] | > 20000 pM | 10.80
4 | COCCCn1nc(NS(C)(=O)=O)c2c(Cl)ccc(-n3c([C@H](Cc4cc(F)cc(F)c4)NC(=O)Cn4nc(C(F)F)c5c4C(F)(F)[C@@H]4C[C@H]54)nc4nc(C5CCC(F)(F)CC5)cc(NCCN5CC(F)(F)C5)c4c3=O)c21 (atropisomer, axis not shown; (P)) [Example 517, N-[(1S)-1-[(3P)-3-[4-chloro-3-methanesulfonamido-1-(3-methoxypropyl)-1H-indazol-7-yl]-5-{[2-(3,3-difluoroazetidin-1-yl)ethyl]amino}-7-(4,4-difluorocyclohexyl)-4-oxo-3H,4H-pyrido[2,3-d]pyrimidin-2-yl]-2-(3,5-difluorophenyl)ethyl]-2-[(2S,4R)-9-(difluoromethyl)-5,5-difluoro-7,8-diazatricyclo[4.3.0.0^2,^4]nona-1(6),8-dien-7-yl]acetamide] | > 20000 pM | 11.05
5 | COCCCn1nc(NS(C)(=O)=O)c2c(Cl)ccc(-n3c([C@H](Cc4cc(F)cc(F)c4)NC(=O)Cn4nc(C(F)F)c5c4C(F)(F)[C@@H]4C[C@H]54)nc4nc(C5CCC(F)(F)CC5)cc(NCCCN5CCCCC5)c4c3=O)c21 (atropisomer, axis not shown; (P)) [Example 519, N-[(1S)-1-[(3P)-3-[4-chloro-3-methanesulfonamido-1-(3-methoxypropyl)-1H-indazol-7-yl]-7-(4,4-difluorocyclohexyl)-4-oxo-5-{[3-(piperidin-1-yl)propyl]amino}-3H,4H-pyrido[2,3-d]pyrimidin-2-yl]-2-(3,5-difluorophenyl)ethyl]-2-[(2S,4R)-9-(difluoromethyl)-5,5-difluoro-7,8-diazatricyclo[4.3.0.0^2,^4]nona-1(6),8-dien-7-yl]acetamide] | > 20000 pM | 10.62
6 | COCCCn1nc(NS(C)(=O)=O)c2c(Cl)ccc(-n3c([C@H](Cc4cc(F)cc(F)c4)NC(=O)Cn4nc(C(F)F)c5c4C(F)(F)[C@@H]4C[C@H]54)nc4nc(C5CCC(F)(F)CC5)cc(NCCc5ccccc5)c4c3=O)c21 (atropisomer, axis not shown; (P)) [Example 521, N-[(1S)-1-[(3P)-3-[4-chloro-3-methanesulfonamido-1-(3-methoxypropyl)-1H-indazol-7-yl]-7-(4,4-difluorocyclohexyl)-4-oxo-5-[(2-phenylethyl)amino]-3H,4H-pyrido[2,3-d]pyrimidin-2-yl]-2-(3,5-difluorophenyl)ethyl]-2-[(2S,4R)-9-(difluoromethyl)-5,5-difluoro-7,8-diazatricyclo[4.3.0.0^2,^4]nona-1(6),8-dien-7-yl]acetamide] | > 20000 pM | 10.10
7 | COCCCn1nc(NS(C)(=O)=O)c2c(Cl)ccc(-n3c([C@H](Cc4cc(F)cc(F)c4)NC(=O)Cn4nc(C(F)F)c5c4C(F)(F)[C@@H]4C[C@H]54)nc4nc(C5CCC(F)(F)CC5)cc(NCCN(C)C)c4c3=O)c21 (atropisomer, axis not shown; (P)) [Example 522, N-[(1S)-1-[(3P)-3-[4-chloro-3-methanesulfonamido-1-(3-methoxypropyl)-1H-indazol-7-yl]-7-(4,4-difluorocyclohexyl)-5-{[2-(dimethylamino)ethyl]amino}-4-oxo-3H,4H-pyrido[2,3-d]pyrimidin-2-yl]-2-(3,5-difluorophenyl)ethyl]-2-[(2S,4R)-9-(difluoromethyl)-5,5-difluoro-7,8-diazatricyclo[4.3.0.0^2,^4]nona-1(6),8-dien-7-yl]acetamide] | > 20000 pM | 10.85
8 | COCCCn1nc(NS(C)(=O)=O)c2c(Cl)ccc(-n3c([C@H](Cc4cc(F)cc(F)c4)NC(=O)Cn4nc(C(F)F)c5c4C(F)(F)[C@@H]4C[C@H]54)nc4nc(C5CCC(F)(F)CC5)cc(NCCN5CCC(C)(C)CC5)c4c3=O)c21 (atropisomer, axis not shown; (P)) [Example 523, N-[(1S)-1-[(3P)-3-[4-chloro-3-methanesulfonamido-1-(3-methoxypropyl)-1H-indazol-7-yl]-7-(4,4-difluorocyclohexyl)-5-{[2-(4,4-dimethylpiperidin-1-yl)ethyl]amino}-4-oxo-3H,4H-pyrido[2,3-d]pyrimidin-2-yl]-2-(3,5-difluorophenyl)ethyl]-2-[(2S,4R)-9-(difluoromethyl)-5,5-difluoro-7,8-diazatricyclo[4.3.0.0^2,^4]nona-1(6),8-dien-7-yl]acetamide] | > 20000 pM | 10.92
9 | C[C@@H]1CN(Cc2cc(C3CCC(F)(F)CC3)nc3nc([C@H](Cc4cc(F)cc(F)c4)NC(=O)Cn4nc(C(F)F)c5c4C(F)(F)[C@@H]4C[C@H]54)n(-c4ccc(Cl)c5c(NS(C)(=O)=O)nn(CCN6CCC(F)(F)CC6)c45)c(=O)c23)C[C@H](C)O1 (atropisomer, axis not shown; (P)) [Example 525, N-[(1S)-1-[(3P)-3-{4-chloro-1-[2-(4,4-difluoropiperidin-1-yl)ethyl]-3-methanesulfonamido-1H-indazol-7-yl}-7-(4,4-difluorocyclohexyl)-5-{[(2R,6S)-2,6-dimethylmorpholin-4-yl]methyl}-4-oxo-3H,4H-pyrido[2,3-d]pyrimidin-2-yl]-2-(3,5-difluorophenyl)ethyl]-2-[(2S,4R)-9-(difluoromethyl)-5,5-difluoro-7,8-diazatricyclo[4.3.0.0^2,^4]nona-1(6),8-dien-7-yl]acetamide] | > 20000 pM | 10.80
10 | C[C@@H]1CN(Cc2cc(C3CCC(F)(F)CC3)nc3nc([C@H](Cc4cc(F)cc(F)c4)NC(=O)Cn4nc(C(F)F)c5c4C(F)(F)[C@@H]4C[C@H]54)n(-c4ccc(Cl)c5c(NS(C)(=O)=O)nn(CCN6C[C@H](F)C[C@H](F)C6)c45)c(=O)c23)C[C@H](C)O1 (atropisomer, axis not shown; (P)) [Example 526, N-[(1S)-1-[(3P)-3-(4-chloro-1-{2-[(3R,5S)-3,5-difluoropiperidin-1-yl]ethyl}-3-methanesulfonamido-1H-indazol-7-yl)-7-(4,4-difluorocyclohexyl)-5-{[(2R,6S)-2,6-dimethylmorpholin-4-yl]methyl}-4-oxo-3H,4H-pyrido[2,3-d]pyrimidin-2-yl]-2-(3,5-difluorophenyl)ethyl]-2-[(2S,4R)-9-(difluoromethyl)-5,5-difluoro-7,8-diazatricyclo[4.3.0.0^2,^4]nona-1(6),8-dien-7-yl]acetamide] | > 20000 pM | 10.85
11 | C[C@@H]1CN(Cc2cc(C3CCC(F)(F)CC3)nc3nc([C@H](Cc4cc(F)cc(F)c4)NC(=O)Cn4nc(C(F)F)c5c4C(F)(F)[C@@H]4C[C@H]54)n(-c4ccc(Cl)c5c(NS(C)(=O)=O)nn(CCN6CCC(F)CC6)c45)c(=O)c23)C[C@H](C)O1 (atropisomer, axis not shown; (P)) [Example 527, N-[(1S)-1-[(3P)-3-{4-chloro-1-[2-(4-fluoropiperidin-1-yl)ethyl]-3-methanesulfonamido-1H-indazol-7-yl}-7-(4,4-difluorocyclohexyl)-5-{[(2R,6S)-2,6-dimethylmorpholin-4-yl]methyl}-4-oxo-3H,4H-pyrido[2,3-d]pyrimidin-2-yl]-2-(3,5-difluorophenyl)ethyl]-2-[(2S,4R)-9-(difluoromethyl)-5,5-difluoro-7,8-diazatricyclo[4.3.0.0^2,^4]nona-1(6),8-dien-7-yl]acetamide] | > 20000 pM | 10.92
